# Measured values from patent publication US4260617A, “17-Cyclopropylmethyl-14-hydroxy-3-methoxymorphinan-6-one and method of treating pain with it” (SISA, Incorporated, priority 1979, dated 1981).
# Tests used:
# [1] = in words, prior art; cited from earlier work
# [2] = system: morphine effect in rat tail flick; assay: Narcotic antagonist activity (modified rat tail flick test, antagonism of morphine); format: in vivo, male albino Wistar rats; settings: for ED50: Rattus norvegicus, ip, 20 min, test drug intraperitoneally, rats, ED80 dose of morphine s.c. ten minutes later, retested 20 minutes after morphine, read-out: AD50 (the source's name)
# Protocol: The narcotic anatagonist effects of test compounds were determined by a modification of the rat tail flick procedure of Harris and Pierson (J. Pharmacol. Exp. Ther. 143: 141 [1964]).
# Male albino Wistar rats (100-120 g) were used for this study. A rat's tail is so placed so as to cover a photocell. Heat is applied by a lamp in a reflector with a timer being connected to the lamp and photocell so that the timer goes on when the light is turned on and is turned off when the photocell is uncovered. A rheostat, incorporated into a heating lamp, is used to adjust the intensity of the light fallng on the tail of the rat such that the rat's control reaction time is from two to four seconds. Animals with a control reaction time outside this range are rejected. The rheostat adjustment is made only if a significant proportion (more than 1 out of every 10 rats) of the reaction times are outside the range of 1.8 to 5.8 seconds. Groups of five rats were used each time, and two control times were determined at least 30 minutes apart. The test drug was given intraperitoneally and this was followed ten minutes later by an ED80 dose of morphine subcutaneously. The animals were retested at 20 minutes after the morphine injection. Control animals were given morphine only.
# The data were calculated as follows: [formula]
# The data were plotted on log-probit paper and AD50 values, i.e., the dose required to inhibit the morphine effect by 50% within 95% confidence limits, were determined by the method of Litchfield and Wilcoxon.
# [3] = system: acetic acid induced writhing in mice; assay: Acetic acid mouse writhing test (analgesic effect); format: in vivo, male CD-1 mice; settings: for ED50: Mus musculus, sc, subcutaneous, mice, acetic acid i.p. 15 minutes post drug, writhes in 20 minute interval; for ED50/AD50: ratio of mouse writhing ED50 to rat tail flick AD50
# Protocol: The analgesic effects of test compounds were determined in mice by use of the acetic acid writhing test described by B. J. R. Whittle, Brit. J. Pharmacol., 22: 296 (1964). In this test at least three groups of five male CD-1 mice each were given subcutaneous doses of the test drug dissolved in either distilled water or distilled water acidified with HCl depending on the solubility of the compound. In all cases, 0.4 milliliter of a 0.75% V/V acetic acid in distilled water solution was administered intraperitoneally 15 minutes post drug. The number of writhes in a 20 minute interval were determined and compared with the number of writhes in control groups which had received only acetic acid.
# Percent inhibition of writhing was calculated as: [formula]
# The ED50 dose, i.e., the dose required to reduce the number of writhes by 50%, was determined graphically from a plot of % inhibition as a probit versus log dose. Confidence limits of 95% were calculated on the basis of those results falling in the range 16-84% inhibition. See Litchfield, J. T. and Wilcoxon, F., J. Pharmacol. Exp. Ther., 96, 99-113, (1949).
Compound,ED50 [2],ED50 [3],ED50/AD50 [3],analgesic / narcotic antagonist activity [1],further results
O=C1CCC2(O)C3Cc4ccc(O)cc4C2(CCN3CC2CC2)C1 (stereo not shown),–,–,–,–,"duration of action [1]: very long acting; potency relative to A, cyclazocine or naloxone [1]: more potent than A (above), cyclazocine or naloxone"
"COc1ccc2c(c1)[C@]13CCN(CC4CC4)[C@H](C2)[C@]1(O)CCC(=O)C3.Cl [179-A-19, 17-cyclopropylmethyl-14-hydroxy-3-methoxymorphinan-6-one hydrochloride]",0.5 mg/kg,0.3 mg/kg,0.6,–,"more potent as an analgesic, by a factor ([3]; 179-A-19 versus 179-A-20): greater than 7"
"Cl.O=C1CC[C@@]2(O)[C@H]3Cc4ccc(O)cc4[C@@]2(CCN3CC2CC2)C1 [179-A-20, 17-cyclopropylmethyl-3,14-dihydroxymorphinan-6-one hydrochloride]",0.082 mg/kg,2.2 mg/kg,26.83,–,"more potent in terms of narcotic antagonist activity, by a factor ([2]; 179-A-20 versus 179-A-19): about 6"
Oc1ccc2c(c1)C13CCCCC1(O)C(C2)N(CC1CC1)CC3 (stereo not shown) [A],–,–,–,essentially a narcotic antagonist,–
Oc1ccc2c(c1)C13CCCCC1(O)C(C2)N(CC1CCC1)CC3 (stereo not shown) [B],–,–,–,both analgesic and narcotic antagonist activity,–
C[C@H]1[C@H]2Cc3ccc(O)cc3[C@]1(C)CCN2CC1CC1 [cyclazocine],–,–,–,mixed analgesic/narcotic antagonist activity,–
